Source: US9284324B2, “Phenylpyrrole derivative” (TAISHO PHARMACEUTICAL CO., LTD, priority 2011, dated 2016)
“And” between values parts separate entries of the source, which are not always exact repeats. Equal entries are not always repeated.

What was measured:
H3 receptor = molecular target: T1, H3 receptor (Rattus norvegicus, UniProt Q9QYN8); assay: Rat H3 receptor binding test (N-α-methyl[3H]histamine); conditions: rat frontal cortex membrane fraction, N-α-methyl[3H]histamine 0.75 nM
T1 construct: The frontal cortex dissected from rats was homogenized; from tissue; host or cells: rat frontal cortex membrane fraction
Protocol: (Test 1: Rat H3 Receptor Binding Test)
The frontal cortex dissected from rats was homogenized with a Teflon homogenizer in a 50 mM Tris-HCl buffer solution (pH 7.4) containing a protease inhibitor (Complete EDTA-free; Roche Diagnostics) and 5 mM EDTA. The homogenate was centrifuged at 48,000×g for 15 minutes. The supernatant was removed and the pellet was suspended in a 50 mM Tris-HCl buffer solution (pH 7.4) containing 5 mM EDTA and centrifuged at 48,000×g for 15 minutes. The supernatant was removed and the pellet was suspended in a 50 mM Tris-HCl buffer solution (pH 7.4) containing 5 mM EDTA to give a membrane fraction. The membrane fraction (the protein content in the final reaction mixture: 75 μg), N-α-methyl[^3H]histamine (PerkinElmer; final concentration: 0.75 nM) and a test drug were mixed and subjected to reaction at room temperature for an hour. After the end of the reaction, the reaction mixture was suction filtered through a 96-well GF/C filter plate pretreated with 0.3% polyethyleneimine; the filters were then washed five times with a 50 mM Tris-HCl buffer solution (pH 7.4) containing 5 mM EDTA. After the washing, the filters were dried and a scintillator was added to measure the residual radioactivity on the filter with TopCount (PerkinElmer).
The residual radioactivity in the presence of 10 μM thioperamide was taken as indicative of nonspecific binding and the difference from the residual radioactivity in the absence of thioperamide was taken as indicative of specific binding. Each of the test drugs was dissolved and diluted in DMSO at varying concentrations to plot a dose-response curve from the corresponding residual radio activities; the concentration of test drug that inhibited the specific binding by 50% (IC50) was determined from this curve.

[1] = molecular target: T2, P-glycoprotein (Human MDR1) (Homo sapiens, UniProt P08183); assay: P-glycoprotein substrate recognition test; assay type: in vitro ADME; conditions: ratio of apical→basal and basal→apical membrane permeation coefficients; for efflux ratio at 10 μM: human, LLC-PK1, LLC-GA5-COL300 cells on transwell
T2 construct: expressed in transfected cells; host or cells: LLC-GA5-COL300 (derived from pig kidney LLC-PK1)
Protocol: (Test 4: P-Glycoprotein Substrate Recognition Test)
LLC-GA5-COL300 cells (Human MDR1 expressing system derived from pig kidney derived, cultured renal epithelial cell line LLC-PK1) were cultured on a transwell. Immediately before the test, the culture medium was replaced by Hank's balanced salt solution (HBSS) and the test was then conducted. A solution of an assay compound adjusted to a final concentration of 10 μM was added to the donor side of LLC-GA5-COL300 cells and after the passage of a predetermined period of time, a specified quantity of […] was sampled from the acceptor side. The concentration of the assay compound in the sample was measured by LC-MS/MS. From the amounts of the compound that accumulated and passed into the acceptor side, membrane permeation coefficients (×10^−6 cm/sec) were calculated for apical→basal and basal→apical directions and their relative ratio (efflux ratio) was determined to evaluate the P-glycoprotein substrate recognition.

[2] = Rat in vivo pharmacokinetic study; parameters: species or system SD rats; conditions: for concentration at 1 h / Kp at 1 h: SD, rat, in vivo, po, 3 mg/kg
Protocol: (Test 3: Rat In Vivo Pharmacokinetic Study)
SD rats were given a single oral administration of Compound No. 3, 4 or 7 at a dose of 3 mg/kg and an hour after the administration, the compound's distribution among the plasma, brain, and cerebrospinal fluid was checked. Quantification was effected by a high-performance chromatography/tandem mass spectrometer API 4000 (LC-MS/MS; AB Sciex). As it turned out, Compound Nos. 3, 4 and 7 had good brain/plasma movement ratios of 4.5, 2.9 and 2.2, respectively, with the corresponding intracerebral concentrations of 78.2 ng/g, 7.06 ng/g and 408 ng/g.

histamine H3 receptor = molecular target: T3, histamine H3 receptor (Rattus norvegicus, UniProt Q9QYN8); assay: [35S]GTP-γ-S binding test; assay type: biochemical; conditions: rat frontal cortex membrane fraction, R(−)-α-methyl histamine 300 nM, [35S]GTP-γ-S 0.3 nM
T3 construct: The frontal cortex dissected from rats was homogenized; from tissue; host or cells: rat frontal cortex membrane fraction
Protocol: (Test 2: [^35S]GTP-γ-S Binding Test)
The frontal cortex dissected from rats was homogenized with a Teflon homogenizer in a 30 mM Tris-HCl buffer solution (pH 7.4) containing 2.5 mM calcium chloride dihydrate. The homogenate was centrifuged at 48,000×g for 15 minutes. The supernatant was removed and the pellet was suspended in a 30 mM Tris-HCl buffer solution (pH 7.4) containing 2.5 mM calcium chloride dihydrate and centrifuged at 48,000×g for 15 minutes. The supernatant was removed and the pellet was suspended in a 30 mM Tris-HCl buffer solution (pH 7.4) containing 2.5 mM calcium chloride dihydrate and after incubation at 37° C. for 30 minutes, the suspension was centrifuged at 48,000×g for 15 minutes. The resulting supernatant was removed and the pellet was suspended in a 20 mM HEPES buffer solution (pH 7.4) containing 100 mM sodium chloride and 10 mM magnesium chloride to give a membrane fraction. […] After the washing, the filters were dried and a scintillator was added to measure the residual radioactivity on the filter with TopCount (PerkinElmer).
The residual radioactivity in the absence of R(−)-α-methyl histamine was taken as indicative of nonspecific binding and the difference from the residual radioactivity in the presence of R(−)-α-methyl histamine was taken as indicative of specific binding. […]

[3] = SD rats, single oral 3 mg/kg, an hour after administration
[4] = cerebrospinal fluid/plasma movement ratio

T2 sequence (P08183 whole entry): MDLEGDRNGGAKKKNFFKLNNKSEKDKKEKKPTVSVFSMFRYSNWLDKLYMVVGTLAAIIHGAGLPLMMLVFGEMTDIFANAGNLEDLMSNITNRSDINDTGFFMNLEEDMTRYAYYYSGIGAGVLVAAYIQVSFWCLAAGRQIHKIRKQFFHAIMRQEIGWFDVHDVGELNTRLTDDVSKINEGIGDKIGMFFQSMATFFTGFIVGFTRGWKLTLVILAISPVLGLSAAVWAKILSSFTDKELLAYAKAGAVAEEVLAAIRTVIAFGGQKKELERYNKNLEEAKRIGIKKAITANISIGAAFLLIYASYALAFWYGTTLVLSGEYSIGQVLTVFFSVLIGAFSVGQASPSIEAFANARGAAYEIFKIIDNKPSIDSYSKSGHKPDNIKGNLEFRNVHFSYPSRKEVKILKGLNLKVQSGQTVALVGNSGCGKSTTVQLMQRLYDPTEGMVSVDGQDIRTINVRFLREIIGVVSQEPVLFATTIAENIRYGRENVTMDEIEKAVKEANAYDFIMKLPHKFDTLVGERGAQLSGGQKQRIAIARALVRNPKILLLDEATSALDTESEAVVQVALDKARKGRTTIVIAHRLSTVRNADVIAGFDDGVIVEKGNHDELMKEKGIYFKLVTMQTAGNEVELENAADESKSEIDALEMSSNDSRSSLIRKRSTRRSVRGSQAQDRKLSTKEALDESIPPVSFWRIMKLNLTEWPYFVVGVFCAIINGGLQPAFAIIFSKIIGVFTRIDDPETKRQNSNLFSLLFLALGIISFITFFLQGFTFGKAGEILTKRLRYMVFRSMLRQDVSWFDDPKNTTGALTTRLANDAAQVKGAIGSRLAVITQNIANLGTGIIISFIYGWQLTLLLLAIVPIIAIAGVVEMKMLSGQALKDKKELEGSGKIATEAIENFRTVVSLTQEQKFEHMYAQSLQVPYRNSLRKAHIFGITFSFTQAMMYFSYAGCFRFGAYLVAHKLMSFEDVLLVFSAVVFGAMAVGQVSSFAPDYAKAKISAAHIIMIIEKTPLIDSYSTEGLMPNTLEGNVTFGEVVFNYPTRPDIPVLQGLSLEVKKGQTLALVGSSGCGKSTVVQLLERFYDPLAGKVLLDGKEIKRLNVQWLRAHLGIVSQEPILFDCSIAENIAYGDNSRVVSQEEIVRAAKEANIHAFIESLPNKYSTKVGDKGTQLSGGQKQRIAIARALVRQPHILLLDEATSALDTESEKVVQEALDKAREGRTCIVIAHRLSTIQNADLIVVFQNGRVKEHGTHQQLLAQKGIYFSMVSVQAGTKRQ
T1 sequence (Q9QYN8 whole entry): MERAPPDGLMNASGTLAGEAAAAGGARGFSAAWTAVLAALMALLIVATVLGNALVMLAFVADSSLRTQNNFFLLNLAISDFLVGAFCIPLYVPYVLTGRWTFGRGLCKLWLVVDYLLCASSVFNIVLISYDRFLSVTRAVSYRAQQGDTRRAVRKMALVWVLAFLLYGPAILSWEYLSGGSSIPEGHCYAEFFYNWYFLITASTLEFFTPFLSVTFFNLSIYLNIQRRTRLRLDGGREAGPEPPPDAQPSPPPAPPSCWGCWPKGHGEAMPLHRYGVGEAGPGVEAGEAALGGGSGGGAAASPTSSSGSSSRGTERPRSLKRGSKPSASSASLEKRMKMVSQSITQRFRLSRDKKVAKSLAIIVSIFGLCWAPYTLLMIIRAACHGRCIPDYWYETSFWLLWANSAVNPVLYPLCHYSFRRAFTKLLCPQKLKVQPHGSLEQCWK
T3 sequence (Q9QYN8 whole entry): as above

Row | IC50 (H3 receptor) [nM] | efflux ratio at 10 μM [1] | Molecule | also measured
1 | 1.1 |  | (1-{4-[(1-cyclobutylpiperidin-4-yl)oxy]phenyl}-1H-pyrrol-3-yl)(pyrrolidin-1-yl)methanol [compound 4] | Efflux ratio ([1]; LLC-GA5-COL300 cells on transwell, 10 μM): 1.3; brain/plasma movement ratio [2, 3]: 2.9; intracerebral concentration [2, 3]: 7.06 ng/g
2 | 5.2 |  | CC(C)(C)NC(=O)c1ccn(-c2ccc(OC3CCN(C4CCC4)CC3)cc2)c1 [compound 12, N-tert-butyl-1-{4-[(1-cyclobutylpiperidin-4-yl)oxy]phenyl}-1H-pyrrole-3-carboxamide] | 
3 | 1.5 | 3.1 | C[C@@H]1CCCN1CCCOc1ccc(-n2ccc(C(=O)N3CCCC3)c2)cc1 [Compound No. 16, [1-(4-{3-[(2R)-2-methylpyrrolidin-1-yl]propoxy}phenyl)-1H-pyrrol-3-yl](pyrrolidin-1-yl)methanone] | 
4 | 5.9 | 1 | CNC(=O)c1ccn(-c2ccc(OC3CCN(C4CCC4)CC3)cc2)c1 [compound 7, 1-{4-[(1-cyclobutylpiperidin-4-yl)oxy]phenyl}-N-methyl-1H-pyrrole-3-carboxamide] | concentration at 1 h [2]: 408 ng/g and 50.5 ng/mL; Kp at 1 h ([2]; brain/plasma movement ratio): 2.2; Kp at 1 h [2, 4]: 0.3; IC50 (histamine H3 receptor): ≤ 100 nM
5 | 12 |  | COC(=O)c1ccn(-c2ccc(OC3CCN(C4CCC4)CC3)cc2)c1 [Compound No. 1, methyl 1-{4-[(1-cyclobutylpiperidin-4-yl)oxy]phenyl}-1H-pyrrole-3-carboxylate] | 
6 | 1.7 |  | CC(C)(C)N1CCC(Oc2ccc(-n3ccc(C(=O)N4CCCC4)c3)cc2)CC1 [Compound No. 19, (1-{4-[(1-tert-butylpiperidin-4-yl)oxy]phenyl}-1H-pyrrol-3-yl)(pyrrolidin-1-yl)methanone] | 
7 | 2.5 | 1.6 | O=C(c1ccn(-c2ccc(OC3CCN(C4CCC4)CC3)cc2)c1)N1CCOCC1 [compound 9, (1-{4-[(1-cyclobutylpiperidin-4-yl)oxy]phenyl}-1H-pyrrol-3-yl)(morpholin-4-yl)methanone] | 
8 | 34 |  | O=C(O)c1ccn(-c2ccc(OC3CCN(C4CCC4)CC3)cc2)c1 [Compound No. 2, 1-{4-[(1-cyclobutylpiperidin-4-yl)oxy]phenyl}-1H-pyrrole-3-carboxylic acid] | 
9 | 1.7 | 1.4 | O=C(c1ccn(-c2ccc(OC3CCN(C4CCC4)CC3)cc2)c1)N1CCC1 [Compound No. 3, azetidin-1-yl (1-{4-[(1-cyclobutylpiperidin-4-yl)oxy]phenyl}-1H-pyrrol-3-yl)methanone] | concentration at 1 h [2]: 78.2 ng/g and 5.75 ng/mL; Kp at 1 h ([2]; brain/plasma movement ratio): 4.5; Kp at 1 h [2, 4]: 0.3; IC50 (histamine H3 receptor): ≤ 100 nM
10 | 3.2 | 1.2 | CN(C)C(=O)c1ccn(-c2ccc(OC3CCN(C4CCC4)CC3)cc2)c1 [compound 6] | 
11 | 1 |  | O=C(c1ccn(-c2ccc(OC3CCN(C4CCC4)CC3)cc2)c1)N1CC2(COC2)C1 [compound 11, (1-{4-[(1-cyclobutylpiperidin-4-yl)oxy]phenyl}-1H-pyrrol-3-yl)(2-oxa-6-azaspiro[3.3]hepta-6-yl)methanone] | 
12 | 9.5 | 1.6 | NC(=O)c1ccn(-c2ccc(OC3CCN(C4CCC4)CC3)cc2)c1 [compound 8, 1-{4-[(1-cyclobutylpiperidin-4-yl)oxy]phenyl}-1H-pyrrole-3-carboxamide] | 
13 | 6.6 |  | Cc1cc(C(=O)N2CCCC2)c(C)n1-c1ccc(OC2CCN(C3CCC3)CC2)cc1 [Compound No. 15, (1-{4-[(1-cyclobutylpiperidin-4-yl)oxy]phenyl}-2,5-dimethyl-1H-pyrrol-3-yl)(pyrrolidin-1-yl)methanone] | 
14 | 21 |  | CNC(=O)c1ccn(-c2ccc(OC3CCN(C(C)(C)C)CC3)cc2)c1 [Compound No. 20, 1-{4-[(1-tert-butylpiperidin-4-yl)oxy]phenyl}-N-methyl-1H-pyrrole-3-carboxamide] | 
15 | 3.7 |  | O=C(NC1CCC1)c1ccn(-c2ccc(OC3CCN(C4CCC4)CC3)cc2)c1 [compound 13, N-cyclobutyl-1-{4-[(1-cyclobutylpiperidin-4-yl)oxy]phenyl}-1H-pyrrole-3-carboxamide] | 
16 | 38 |  | CNC(=O)c1ccn(-c2ccc(OC3CCN(C(C)C)CC3)cc2)c1 [Compound No. 18, 1-{4-[(1-isopropylpiperidin-4-yl)oxy]phenyl}-N-methyl-1H-pyrrole-3-carboxamide] | 
17 | 1.1 |  | CC(C)N1CCC(Oc2ccc(-n3ccc(C(=O)N4CCCC4)c3)cc2)CC1 [Compound No. 17, (1-{4-[(1-isopropylpiperidin-4-yl)oxy]phenyl}-1H-pyrrol-3-yl)(pyrrolidin-1-yl)methanone] | 
18 | 6.8 |  | C[C@@H]1CN(C(=O)c2ccn(-c3ccc(OC4CCN(C5CCC5)CC4)cc3)c2)C[C@H](C)O1 [compound 10] | 

Row | Molecule | IC50 (H3 receptor) [nM] | efflux ratio at 10 μM [1] | also measured
19 | (1-{4-[(1-cyclobutylpiperidin-4-yl)oxy]phenyl}-1H-pyrrol-3-yl)(piperidin-1-yl)methanol [compound 5] | 3.2 |  | 
